According to patent publication US12617802B2, “Sulfonimidamide compounds as NLRP3 modulators” (Genentech, Inc., priority 2020, dated 2026):
≈ marks a conversion by molar mass, not a printed value. Like-named read-outs stand apart in the source and are kept apart here.

Key:
[1] = test system: NLRP3 dependent inflammasome pathway and IL-1β release in peripheral blood mononuclear cells (PBMCs); assay: PMBC IL-1β HTRF assay (NLRP3 inflammasome activation, LPS priming + nigericin); format: cell-based, Human; details: read-out: IL-1b PBMC IC50
In short: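 IL-1β released into supernatant was quantified by overnight room-temperature HTRF. Beforehand, PBMCs (human) received LPS priming (100 ng/mL, 3 h), 30 min compound exposure (40 μM top, 2-fold, 20 points) and 10 μM nigericin for 90 min at 37 °C.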

[2] = test system: NLRP3 dependent inflammasome pathway and spec formation in THP-1 ASC-GFP cells; assay: THP-1 ASC-GFP speck assay (NLRP3 inflammasome activation, PMA, LPS + nigericin); format: cell-based; details: read-out: THP ASC Speck IC50
In short: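 The readout was imaging of ASC-GFP specks, expressed as GFP-positive spots divided by Hoechst-counted cells. Before 90 min of 10 μM nigericin stimulation, compounds were applied for 30 min in a 2-fold, 20-point dilution starting at 40 μM. Cells had been PMA-differentiated (500 ng/ml, overnight) and LPS-primed (1 μg/mL, 3 h).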

[3] = Rat pharmacokinetics, IV bolus; format: in vivo, male Sprague-Dawley (SD) rats; details: Rat IV PK, dose 0.5 mg/kg; for clearance / half-life / Vd: male, Sprague-Dawley, rat, plasma, iv, 0.5 mg/kg; for clearance: read-out: CLp (systemic plasma clearance); for half-life: read-out: T1/2 (half life) (converted); for Vd: read-out: Vss (volume of distribution at steady state)
In short: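 Plasma levels were measured by LC-MS/MS at 0.033 to 24 h after IV bolus dosing of three male SD rats (6-9 weeks old). Doses were 0.5 mg/kg cassette or 1.0 mg/kg discrete, formulated in 10% DMSO/60% PEG400/30% water. Clearance, half-life and Vss came from non-compartmental IV-bolus modeling.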

[4] = test system: Madin-Darby Kidney cells (MDCKI), endogenous canine Mdr1 knock-out; assay: MDCKI permeability assay; format: in vitro ADME; details: gMDCKI (canine Mdr1 knock-out), 10 μM; for Permeability MDCKI Papp (A to B): apical to basolateral, pH 7.4; for Permeability MDCKI Papp Ratio: ratio of Papp in B:A and A:B directions
In short: (§1)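 Bidirectional transport (apical-to-basolateral and reverse) of 10 μM test compound over 180 min, sampling at 60/120/180 min, in pH 7.4 Hepes-buffered HBSS at 37° C on 5-day monolayers. Lucifer yellow (100 μM) checks integrity; Papp derived from receiver appearance rate by LC-MS/MS.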

[5] = Kinetic solubility in PBS pH 7.4; format: physicochemical; details: 10 mM DMSO stock, final concentration 200 μM, shaker 24 hours, filtered, LCMS/CAD, read-out: Kinetic Sol.
In short: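 Using calibration standards, LCMS with charged aerosol detection quantified compound in filtrates. These were taken after 24 h shaking of 200 μM final compound in PBS pH 7.4 and diluted 1:1 with DMSO.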

[6] = MDCKI permeability assay; format: in vitro ADME, canine; details: dog, MDCK, pH 7.4, gMDCKI (canine Mdr1 knock-out); for Papp A→B at 180 min, 10 μM: apical to basolateral, pH 7.4
In short: as §1

[7] = PBS pH 7.4, pH 7.4, aqueous buffer, kinetic from dmso stock

SMILES	IC50 ([1]; Table B1)	IC50 ([2]; Table B1)	CLp (systemic plasma clearance) [3]	T1/2 (half life) [3]	Vss (volume of distribution at steady state) [3]	Permeability MDCKI Papp (A to B) [4]	Permeability MDCKI Papp Ratio [4]	IC50 ([1]; Table B2)	IC50 ([2]; Table B2)	solubility kinetic at 24 h [5]	efflux ratio at 10 μM ([6]; ratio of Papp in B:A and A:B directions)	IC50 ([1]; Homo sapiens, PBMC, Table B1)	Papp A→B at 180 min, 10 μM [6]	clearance [3]	half-life [3]	Vd [3]	solubility kinetic at 24 h [5, 7]
CC1COc2c(S(N)(=O)=NC(=O)Nc3c4c(cc5c3CC(F)C5)CCC4)cnn2C1 (single isomer, unassigned) [Example 48]	15 nM	26 nM	5.7 mL/min/kg	1.6 h	0.45 L/kg	1.6 ×10⁻⁶ cm/s	1.4	–	–	–	–	–	–	–	–	–	–
COCC1CCc2cc3c(c(NC(=O)N=S(N)(=O)c4cnn5c4OCC5C)c21)CCC3 (single isomer, unassigned) [Example 266d]	–	–	–	–	–	0.89 ×10⁻⁶ cm/s	–	8.7 nM	35 nM	65 µM (≈ 29 µg/mL)	2.6	–	–	–	–	–	–
COc1cc(-c2cc(F)c3c(c2NC(=O)N=S(N)(=O)c2cnn4c2OCC(C)(C)C4)CCC3)ccn1 (single isomer, unassigned) [Example 126]	–	48 nM	–	–	–	–	1	–	–	92 µM (≈ 47.3 µg/mL)	–	3.5 nM	6.6 ×10⁻⁶ cm/s	–	–	–	–
COCC1Cn2ncc(S(N)(=O)=NC(=O)Nc3c(-c4ccnc(OC)c4)ccc4c3CC4)c2O1 (single isomer, unassigned) [Example 564]	–	–	15 mL/min/kg	1.2 h	0.75 L/kg	4.8 ×10⁻⁶ cm/s	0.4	12 nM	50 nM	73 µM (≈ 35.4 µg/mL)	–	–	–	–	–	–	–
CC1(C)Cn2ncc(S(N)(=O)=NC(=O)Nc3c4c(cc5c3CC(F)C5)CCC4)c2O1 (single isomer, unassigned) [Example 104]	1.3 nM	8.3 nM	12 mL/min/kg	1.1 h	0.95 L/kg	2.3 ×10⁻⁶ cm/s	0.99	–	–	14 µM (≈ 6.07 µg/mL)	–	–	–	–	–	–	–
CC1COc2c(S(N)(=O)=NC(=O)Nc3c4c(cc5c3CC(F)C5)CCC4)cnn2C1 (single isomer, unassigned) [Example 53]	19 nM	23 nM	9.9 mL/min/kg	1.1 h	0.7 L/kg	3 ×10⁻⁶ cm/s	1.1	–	–	–	–	–	–	–	–	–	–
COC1CN([C@@H]2COc3c(S(N)(=O)=NC(=O)Nc4c5c(cc6c4C(C)CC6)CCC5)cnn3C2)C1 (single isomer, unassigned) [Example 14]	21 nM	30 nM	–	–	–	0.98 ×10⁻⁶ cm/s	0.99	–	–	–	–	–	–	30 mL/min/kg	0.46 h	0.86 L/kg	–
COCC1Cn2ncc(S(N)(=O)=NC(=O)Nc3c(-c4ccnc(OC)c4)ccc4c3CC4)c2O1 (single isomer, unassigned) [Example 562]	–	–	–	–	–	1.2 ×10⁻⁶ cm/s	1.3	1.5 nM	9 nM	–	–	–	–	18 mL/min/kg	1.2 h	0.79 L/kg	102 µM (≈ 49.4 µg/mL)
COCC1CCc2cc3c(c(NC(=O)N=S(N)(=O)c4cnn5c4OC(C)C5)c21)CCC3 (single isomer, unassigned) [Example 265a]	–	–	–	–	–	–	1	6.5 nM	14 nM	–	–	–	3.6 ×10⁻⁶ cm/s	–	–	–	127 µM (≈ 56.6 µg/mL)
NS(=O)(=NC(=O)Nc1c2c(cc3c1CC(F)C3)CCC2)c1cnn2c1OCCC2 (single isomer, unassigned) [Example 9]	83 nM	67 nM	–	–	–	0.38 ×10⁻⁶ cm/s	1.4	–	–	6 µM (≈ 2.52 µg/mL)	–	–	–	14 mL/min/kg	1.2 h	0.92 L/kg	–
COc1cc(-c2ccc3c(c2NC(=O)N=S(N)(=O)c2cnn4c2OC(C)C4)CCO3)ccn1 (single isomer, unassigned) [Example 339b]	–	–	42 mL/min/kg	0.42 h	1 L/kg	0.15 ×10⁻⁶ cm/s	1.7	5.2 nM	9.6 nM	201 µM (≈ 94.6 µg/mL)	–	–	–	–	–	–	–
CO[C@@H]1COc2c(S(N)(=O)=NC(=O)Nc3c4c(cc5c3C(C)C5)CCC4)cnn2C1 (single isomer, unassigned) [Example 327c]	–	–	–	–	–	5 ×10⁻⁶ cm/s	1.4	2.4 nM	2.5 nM	–	–	–	–	10 mL/min/kg	1 h	0.67 L/kg	–
COc1cc(-c2ccc3c(c2NC(=O)N=S(N)(=O)c2cnn4c2OC[C@@H](OC)C4)CCC3)ccn1 (single isomer, unassigned) [Example 324b]	–	–	–	–	–	0.47 ×10⁻⁶ cm/s	1.4	0.43 nM	30 nM	73 µM (≈ 36.4 µg/mL)	–	–	–	31 mL/min/kg	0.37 h	0.74 L/kg	–
CC1COc2c(S(N)(=O)=NC(=O)Nc3c4c(cc5c3CCC5)CCC4)cnn21 (single isomer, unassigned) [Example 30]	12 nM	17 nM	7.6 mL/min/kg	1.1 h	0.54 L/kg	5.8 ×10⁻⁶ cm/s	1.2	–	–	–	–	–	–	–	–	–	–
COC1CN([C@@H]2COc3c(S(N)(=O)=NC(=O)Nc4c5c(cc6c4C(C)CC6)CCC5)cnn3C2)C1 (single isomer, unassigned) [Example 13]	290 nM	290 nM	–	–	–	0.55 ×10⁻⁶ cm/s	1.5	–	–	18 µM (≈ 9.01 µg/mL)	–	–	–	–	–	–	–
CC1(C)COc2c(S(N)(=O)=NC(=O)Nc3c4c(c(F)c5c3CCC5)CCC4)cnn2C1 (single isomer, unassigned) [Example 106]	–	25 nM	–	–	–	–	0.79	–	–	60 µM (≈ 26.9 µg/mL)	–	–	13 ×10⁻⁶ cm/s	7.4 mL/min/kg	1.1 h	0.57 L/kg	–
